Experimental data reported in ChEMBL document CHEMBL3784917, “Recent Progress in Histone Demethylase Inhibitors” (J Med Chem, 2016).
pEC50, pIC50, pKi: −log10 of the molar value. Values belong to the molecule of their own block, whether it stands above or below them.

What was measured:
[1] = target: T1, Lysine-specific demethylase 4A (Homo sapiens, UniProt O75164); experiment: biochemical
T1 sequence (O75164 whole entry): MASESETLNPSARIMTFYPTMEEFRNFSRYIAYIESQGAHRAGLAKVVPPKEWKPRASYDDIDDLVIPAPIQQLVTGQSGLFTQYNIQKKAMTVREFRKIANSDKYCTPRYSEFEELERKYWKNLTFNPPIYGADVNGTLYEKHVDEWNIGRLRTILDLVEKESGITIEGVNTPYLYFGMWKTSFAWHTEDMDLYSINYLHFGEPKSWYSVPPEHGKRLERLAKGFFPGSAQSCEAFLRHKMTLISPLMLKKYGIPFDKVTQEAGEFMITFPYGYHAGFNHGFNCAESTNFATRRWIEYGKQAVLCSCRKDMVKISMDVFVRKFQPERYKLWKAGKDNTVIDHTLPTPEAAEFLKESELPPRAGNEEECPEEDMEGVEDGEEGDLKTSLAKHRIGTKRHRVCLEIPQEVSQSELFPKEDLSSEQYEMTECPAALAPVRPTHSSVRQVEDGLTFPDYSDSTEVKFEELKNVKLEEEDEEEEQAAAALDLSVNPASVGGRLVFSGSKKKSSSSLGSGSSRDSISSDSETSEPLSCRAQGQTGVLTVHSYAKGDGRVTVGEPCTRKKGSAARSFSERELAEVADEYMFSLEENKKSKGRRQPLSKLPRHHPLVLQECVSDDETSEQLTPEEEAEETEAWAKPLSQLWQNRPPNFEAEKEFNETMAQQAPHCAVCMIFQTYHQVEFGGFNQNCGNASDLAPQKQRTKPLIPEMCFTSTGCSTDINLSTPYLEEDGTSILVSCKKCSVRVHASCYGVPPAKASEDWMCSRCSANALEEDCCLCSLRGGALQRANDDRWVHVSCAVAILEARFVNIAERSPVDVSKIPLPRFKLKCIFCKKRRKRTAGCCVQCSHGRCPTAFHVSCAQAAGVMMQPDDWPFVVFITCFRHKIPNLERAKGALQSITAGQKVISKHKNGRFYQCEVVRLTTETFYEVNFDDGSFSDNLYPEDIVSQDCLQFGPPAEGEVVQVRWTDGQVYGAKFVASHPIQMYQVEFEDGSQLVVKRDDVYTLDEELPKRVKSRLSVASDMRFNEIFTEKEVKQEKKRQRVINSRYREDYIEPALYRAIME

[2] = target: T2, Lysine-specific demethylase 2A (Homo sapiens, UniProt Q9Y2K7); experiment: Inhibition of KDM2A in human MIAPaCa2 cells assessed as increase in H3K36me2 level after 48 hrs by Hoechst 33258 staining based immunofluorescence assay; format: cell-based, MIA PaCa-2
T2 sequence (Q9Y2K7 whole entry): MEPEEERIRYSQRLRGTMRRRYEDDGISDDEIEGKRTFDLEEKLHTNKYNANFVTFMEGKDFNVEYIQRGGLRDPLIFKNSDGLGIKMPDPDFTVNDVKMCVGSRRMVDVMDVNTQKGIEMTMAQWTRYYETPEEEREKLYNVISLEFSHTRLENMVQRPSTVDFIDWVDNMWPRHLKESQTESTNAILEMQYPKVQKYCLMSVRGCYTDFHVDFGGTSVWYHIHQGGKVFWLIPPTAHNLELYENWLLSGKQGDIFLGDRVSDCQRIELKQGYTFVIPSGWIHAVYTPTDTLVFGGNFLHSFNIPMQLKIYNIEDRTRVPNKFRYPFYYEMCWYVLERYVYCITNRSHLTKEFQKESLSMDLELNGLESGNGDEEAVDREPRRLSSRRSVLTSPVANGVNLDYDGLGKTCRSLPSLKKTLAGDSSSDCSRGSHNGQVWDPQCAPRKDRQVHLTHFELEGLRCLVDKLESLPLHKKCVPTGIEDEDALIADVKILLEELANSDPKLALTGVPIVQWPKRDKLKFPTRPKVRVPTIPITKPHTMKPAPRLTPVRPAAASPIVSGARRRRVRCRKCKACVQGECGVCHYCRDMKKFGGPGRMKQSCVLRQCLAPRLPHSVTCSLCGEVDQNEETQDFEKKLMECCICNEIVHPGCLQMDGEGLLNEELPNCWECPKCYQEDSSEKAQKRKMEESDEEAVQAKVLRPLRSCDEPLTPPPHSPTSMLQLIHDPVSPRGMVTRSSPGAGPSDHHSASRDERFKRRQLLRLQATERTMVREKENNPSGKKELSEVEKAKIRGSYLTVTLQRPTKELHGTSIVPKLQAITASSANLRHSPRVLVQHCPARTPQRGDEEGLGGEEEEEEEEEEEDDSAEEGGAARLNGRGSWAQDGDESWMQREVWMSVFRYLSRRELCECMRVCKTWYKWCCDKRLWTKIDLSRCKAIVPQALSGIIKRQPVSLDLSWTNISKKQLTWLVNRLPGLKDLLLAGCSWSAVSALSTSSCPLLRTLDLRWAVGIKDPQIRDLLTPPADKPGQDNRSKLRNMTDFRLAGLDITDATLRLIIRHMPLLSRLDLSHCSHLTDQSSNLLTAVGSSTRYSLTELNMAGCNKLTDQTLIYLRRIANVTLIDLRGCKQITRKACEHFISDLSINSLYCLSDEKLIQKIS

[3] = target: T2, Lysine-specific demethylase 2A; experiment: Competitive inhibition of recombinant His6-tagged KDM2A (1 to 517 residues) (unknown origin) expressed in Escherichia coli BL21 cells using methylstat as substrate preincubated for 30 mins followed by substrate addition measured after 4 hrs by fluorescence polarization assay
[4] = Growth inhibition of human MIAPaCa2 cells after 48 hrs by CellTiter-Glo assay; format: functional; details: MIA PaCa-2, 48 h
[5] = target: T3, Lysine-specific demethylase 5A (Homo sapiens, UniProt P29375)
[6] = target: T1, Lysine-specific demethylase 4A
[7] = target: T1, Lysine-specific demethylase 4A; remark: listed apart in the source
[8] = target: T1, Lysine-specific demethylase 4A; remark: listed apart in the source
[9] = target: T3, Lysine-specific demethylase 5A; set-up: species or system Sf9
[10] = target: Lysine-specific demethylase 6B (Homo sapiens, UniProt O15054); experiment: Inhibition of human C-terminal FLAG-tagged KDM6B (1043 residues) expressed in baculovirus infected sf9 cells using H3K27me3 (21 to 44 residues) substrate preincubated for 10 mins followed by substrate addition measured after 45 mins by TR-FRET assay
Chain of Lysine-specific demethylase 6B (O15054 whole entry, the tested form may be a part): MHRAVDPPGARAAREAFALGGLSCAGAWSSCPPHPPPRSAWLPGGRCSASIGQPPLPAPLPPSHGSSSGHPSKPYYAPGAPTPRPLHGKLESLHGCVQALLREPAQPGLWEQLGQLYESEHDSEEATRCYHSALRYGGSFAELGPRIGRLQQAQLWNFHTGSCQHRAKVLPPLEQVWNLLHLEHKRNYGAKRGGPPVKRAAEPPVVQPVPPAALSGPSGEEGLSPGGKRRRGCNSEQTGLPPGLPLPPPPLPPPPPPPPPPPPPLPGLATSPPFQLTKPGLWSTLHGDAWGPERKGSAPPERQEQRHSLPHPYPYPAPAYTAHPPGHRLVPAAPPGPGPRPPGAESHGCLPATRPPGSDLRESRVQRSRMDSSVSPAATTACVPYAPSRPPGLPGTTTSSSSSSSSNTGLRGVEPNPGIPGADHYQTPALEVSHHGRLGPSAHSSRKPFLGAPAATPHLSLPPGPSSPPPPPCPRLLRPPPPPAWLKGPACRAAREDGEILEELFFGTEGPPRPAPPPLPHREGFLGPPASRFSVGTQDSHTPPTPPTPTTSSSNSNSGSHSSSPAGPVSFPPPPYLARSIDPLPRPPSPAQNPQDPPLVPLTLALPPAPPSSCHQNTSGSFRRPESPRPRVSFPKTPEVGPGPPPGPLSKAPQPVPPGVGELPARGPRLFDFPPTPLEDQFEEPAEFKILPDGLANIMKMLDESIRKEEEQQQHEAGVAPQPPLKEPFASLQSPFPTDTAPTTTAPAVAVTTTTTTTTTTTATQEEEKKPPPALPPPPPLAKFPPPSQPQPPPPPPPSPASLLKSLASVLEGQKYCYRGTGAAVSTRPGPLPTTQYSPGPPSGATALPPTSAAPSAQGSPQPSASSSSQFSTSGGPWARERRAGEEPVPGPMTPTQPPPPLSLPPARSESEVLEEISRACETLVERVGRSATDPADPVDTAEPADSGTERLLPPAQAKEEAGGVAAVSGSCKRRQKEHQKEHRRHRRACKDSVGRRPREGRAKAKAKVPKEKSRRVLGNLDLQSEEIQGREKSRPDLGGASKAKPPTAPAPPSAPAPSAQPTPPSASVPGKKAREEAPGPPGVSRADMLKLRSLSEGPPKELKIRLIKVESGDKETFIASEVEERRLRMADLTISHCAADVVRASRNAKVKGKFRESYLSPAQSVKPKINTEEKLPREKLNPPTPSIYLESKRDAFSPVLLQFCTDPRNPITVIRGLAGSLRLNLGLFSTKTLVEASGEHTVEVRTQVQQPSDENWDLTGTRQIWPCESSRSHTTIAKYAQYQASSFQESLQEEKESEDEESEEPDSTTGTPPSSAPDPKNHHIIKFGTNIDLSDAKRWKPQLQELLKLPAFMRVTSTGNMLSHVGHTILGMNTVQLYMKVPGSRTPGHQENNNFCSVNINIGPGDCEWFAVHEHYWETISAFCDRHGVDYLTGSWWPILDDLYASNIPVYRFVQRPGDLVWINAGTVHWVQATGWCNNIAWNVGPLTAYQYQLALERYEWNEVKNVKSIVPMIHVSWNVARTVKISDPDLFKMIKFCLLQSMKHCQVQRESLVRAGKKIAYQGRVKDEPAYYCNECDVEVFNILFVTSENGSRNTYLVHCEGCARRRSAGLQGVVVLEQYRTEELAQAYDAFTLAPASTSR

T3 sequence (P29375 whole entry): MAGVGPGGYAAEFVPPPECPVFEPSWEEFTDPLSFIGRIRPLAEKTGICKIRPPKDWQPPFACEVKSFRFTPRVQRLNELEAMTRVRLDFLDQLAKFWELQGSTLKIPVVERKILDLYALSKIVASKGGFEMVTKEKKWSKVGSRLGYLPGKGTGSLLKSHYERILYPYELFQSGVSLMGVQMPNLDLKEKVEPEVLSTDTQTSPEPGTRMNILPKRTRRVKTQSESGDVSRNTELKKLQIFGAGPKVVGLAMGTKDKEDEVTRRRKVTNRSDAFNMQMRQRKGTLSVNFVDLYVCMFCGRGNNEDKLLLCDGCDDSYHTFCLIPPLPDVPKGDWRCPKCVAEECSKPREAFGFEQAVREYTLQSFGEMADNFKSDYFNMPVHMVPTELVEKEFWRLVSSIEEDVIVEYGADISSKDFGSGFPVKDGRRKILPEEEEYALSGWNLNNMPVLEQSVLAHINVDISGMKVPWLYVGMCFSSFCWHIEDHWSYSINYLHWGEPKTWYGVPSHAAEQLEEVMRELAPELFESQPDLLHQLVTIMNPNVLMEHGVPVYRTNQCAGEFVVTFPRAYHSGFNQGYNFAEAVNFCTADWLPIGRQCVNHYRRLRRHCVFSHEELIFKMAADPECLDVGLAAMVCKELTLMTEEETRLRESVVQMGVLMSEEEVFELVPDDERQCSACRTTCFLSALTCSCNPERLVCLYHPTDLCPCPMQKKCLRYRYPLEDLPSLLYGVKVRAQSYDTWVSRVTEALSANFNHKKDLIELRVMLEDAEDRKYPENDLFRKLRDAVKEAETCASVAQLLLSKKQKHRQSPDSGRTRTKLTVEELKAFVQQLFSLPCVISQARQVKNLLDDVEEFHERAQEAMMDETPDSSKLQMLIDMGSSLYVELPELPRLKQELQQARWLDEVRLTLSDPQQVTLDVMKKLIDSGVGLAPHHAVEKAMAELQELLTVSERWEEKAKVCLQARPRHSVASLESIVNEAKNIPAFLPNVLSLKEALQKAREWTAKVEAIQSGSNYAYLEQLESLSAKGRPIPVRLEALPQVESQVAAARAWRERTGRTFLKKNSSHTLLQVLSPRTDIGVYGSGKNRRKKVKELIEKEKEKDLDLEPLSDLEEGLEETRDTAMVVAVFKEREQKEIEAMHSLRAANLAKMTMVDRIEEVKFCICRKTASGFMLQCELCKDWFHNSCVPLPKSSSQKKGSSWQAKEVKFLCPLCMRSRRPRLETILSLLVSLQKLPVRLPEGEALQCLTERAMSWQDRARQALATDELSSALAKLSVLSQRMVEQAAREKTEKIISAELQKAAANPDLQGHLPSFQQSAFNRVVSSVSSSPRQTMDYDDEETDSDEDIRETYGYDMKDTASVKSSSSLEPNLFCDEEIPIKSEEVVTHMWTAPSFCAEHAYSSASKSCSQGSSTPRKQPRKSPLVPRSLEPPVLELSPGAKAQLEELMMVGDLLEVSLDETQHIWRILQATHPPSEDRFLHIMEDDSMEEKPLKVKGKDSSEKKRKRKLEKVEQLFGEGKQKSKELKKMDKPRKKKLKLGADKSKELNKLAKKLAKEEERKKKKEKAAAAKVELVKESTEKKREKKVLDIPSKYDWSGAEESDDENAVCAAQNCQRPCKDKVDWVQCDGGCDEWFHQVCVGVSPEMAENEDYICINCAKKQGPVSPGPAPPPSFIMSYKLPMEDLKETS

- pKi [1]: 6.38
- pEC50 [2]: 6.55
- pKi [3]: 6.55
Structure (SMILES): CCCCCC[n+]1ccc(/C=C/c2ccc(N(C)C)cc2)cc1
- GI50 [4]: 71 nM

- pIC50 [5]: 4.39
Structure (SMILES): CCCCc1oc2ccccc2c1C(=O)c1cc(I)c(OCCCC[N+](C)(C)C)c(I)c1

Structure (SMILES): NNC(=O)Cc1nnn[nH]1
- pIC50 [6]: 4.33
- pIC50 [7]: 5.62
- pKi [8]: 5.71
- pIC50 [9]: 4.98
- pIC50 [10]: 4.01
